Results: paper PMC5578999, “Novel quinolone chalcones targeting colchicine-binding pocket kill multidrug-resistant cancer cells by inhibiting tubulin activity and MRP1 function” (Scientific Reports, 2017)

What was measured:
Type in all cases: cell-based
OVCAR-3 = assay: NCI-60 SRB screen
Description: (§1) Supplementary Figure l egend
(§2) 10μ M of CTR-20 was used to examine the drug’s efficac y against the NC I-60 cancer cell li nes including: six leukemia cell lines, nine non- small cell lung cancer cell lines, seven color ect al cancer cell lines, six CNS cancer cell lines, nine melanoma cell lines, seven ovari an can cer cell lines, seven ren al can cer cell lines, two prostate cancer cell lines and six breast cancer cell lines. The scr eenin g was car r ied out b y the US National Cancer Institute (NC I) us i n g a sulforhodamine B (SRB) colorimetric assay. […]
(§3) out by the NC I using five different doses of CTR -20.

MALME-3M = assay: NCI-60 SRB screen
Description: as §1, §2, §3

MCF7 = assay: NCI-60 SRB screen
Description: as §1, §2, §3

T-47D = assay: NCI-60 SRB screen
Description: as §1, §2, §3

786-0 = assay: NCI-60 SRB screen
Description: as §1, §2, §3

SNB-19 = assay: NCI-60 SRB screen
Description: as §1, §2, §3

A498 = assay: NCI-60 SRB screen
Description: as §1, §2, §3

KM12 = assay: NCI-60 SRB screen
Description: as §1, §2, §3

BT-549 = assay: NCI-60 SRB screen
Description: as §1, §2, §3

MDA-MB-468 = assay: NCI-60 SRB screen
Description: as §1, §2, §3

NCI/ADR-RES = assay: NCI-60 SRB screen
Description: as §1, §2, §3

NCI-60 cancer cell lines = assay: NCI-60 SRB screen, panel means; details: mean of panel
Description: Supplementary Table S 3: Antitumor activity of CTR -17 and CTR -20, alone or in combination […]
a Tax: paclitaxel. b mg per kg of bod y wei ght. c unit is mm 3.
as §1, §2, §3

[1] = Homo sapiens, read-out: LC50 (the source's name)

## COc1ccc2[nH]c(=O)c(/C=C/C(=O)c3ccccc3OC)cc2c1 [CTR-20, (E)-6-Methoxy-3-(3-(2-methoxyphenyl)-3-oxoprop-1-enyl) quinolin-2(1H)-one]
OVCAR-3
  Log10GI50: -6.44 Molar
  Log10LC50: -5.03 Molar
  Log10TGI: -5.78 Molar
  TGI: 1.64E-6 Molar
OVCAR-3; 1.00E-5 Molar
  Growth Percent: 8.25%
OVCAR-3; Homo sapiens
  GI50: 359 nM
OVCAR-3; [1]
  CC50: 9330 nM
OVCAR-3; Log10 Concentration -4.0
  Percent Growth: -96%
OVCAR-3; Log10 Concentration -5.0
  Percent Growth: -52%
OVCAR-3; Log10 Concentration -6.0
  Percent Growth: 14%
OVCAR-3; Log10 Concentration -7.0
  Percent Growth: 95%
OVCAR-3; Log10 Concentration -8.0
  Percent Growth: 102%
MALME-3M; Homo sapiens, Malme-3M
  GI50: 766 nM
MALME-3M; Homo sapiens, Malme-3M, read-out: LC50 (the source's name)
  CC50: 30300 nM
MALME-3M; MALME-3M
  Log10GI50: -6.12 Molar
  Log10LC50: -4.52 Molar
  Log10TGI: -5.09 Molar
  TGI: 8.09E-6 Molar
MALME-3M; MALME-3M, 1.00E-5 Molar
  Growth Percent: 38.55%
MALME-3M; MALME-3M, Log10 Concentration -4.0
  Percent Growth: -99%
MALME-3M; MALME-3M, Log10 Concentration -5.0
  Percent Growth: -5%
MALME-3M; MALME-3M, Log10 Concentration -6.0
  Percent Growth: 46%
MALME-3M; MALME-3M, Log10 Concentration -7.0
  Percent Growth: 81%
MALME-3M; MALME-3M, Log10 Concentration -8.0
  Percent Growth: 92%
MCF7
  Log10GI50: -6.51 Molar
  Log10LC50: > -4.00 Molar
  Log10TGI: -5.13 Molar
  TGI: 7.48E-6 Molar
MCF7; 1.00E-5 Molar
  Growth Percent: 10.02%
MCF7; Homo sapiens
  GI50: 312 nM
MCF7; [1]
  CC50: > 100000 nM
MCF7; Log10 Concentration -4.0
  Percent Growth: -44%
MCF7; Log10 Concentration -5.0
  Percent Growth: -2%
MCF7; Log10 Concentration -6.0
  Percent Growth: 16%
MCF7; Log10 Concentration -7.0
  Percent Growth: 83%
MCF7; Log10 Concentration -8.0
  Percent Growth: 86%
T-47D
  Log10GI50: -5.98 Molar
  Log10LC50: -4.32 Molar
  Log10TGI: -4.93 Molar
  TGI: 1.18E-5 Molar
T-47D; 1.00E-5 Molar
  Growth Percent: -2.02%
T-47D; Homo sapiens, T47D
  GI50: 1060 nM
T-47D; Homo sapiens, T47D, read-out: LC50 (the source's name)
  CC50: 47900 nM
T-47D; Log10 Concentration -4.0
  Percent Growth: -76%
T-47D; Log10 Concentration -5.0
  Percent Growth: 6%
T-47D; Log10 Concentration -6.0
  Percent Growth: 51%
T-47D; Log10 Concentration -7.0
  Percent Growth: 90%
T-47D; Log10 Concentration -8.0
  Percent Growth: 84%
786-0
  Log10GI50: -6.42 Molar
  Log10LC50: -5.29 Molar
  Log10TGI: -5.81 Molar
  TGI: 1.56E-6 Molar
786-0; 1.00E-5 Molar
  Growth Percent: 8.21%
786-0; Homo sapiens
  GI50: 378 nM
786-0; [1]
  CC50: 5110 nM
786-0; Log10 Concentration -4.0
  Percent Growth: -97%
786-0; Log10 Concentration -5.0
  Percent Growth: -78%
786-0; Log10 Concentration -6.0
  Percent Growth: 19%
786-0; Log10 Concentration -7.0
  Percent Growth: 93%
786-0; Log10 Concentration -8.0
  Percent Growth: 91%
SNB-19
  Log10GI50: -6.44 Molar
  Log10LC50: -5.05 Molar
  Log10TGI: -5.75 Molar
  TGI: 1.79E-6 Molar
SNB-19; 1.00E-5 Molar
  Growth Percent: 17.04%
SNB-19; Homo sapiens
  GI50: 362 nM
SNB-19; [1]
  CC50: 8880 nM
SNB-19; Log10 Concentration -4.0
  Percent Growth: -89%
SNB-19; Log10 Concentration -5.0
  Percent Growth: -54%
SNB-19; Log10 Concentration -6.0
  Percent Growth: 18%
SNB-19; Log10 Concentration -7.0
  Percent Growth: 90%
SNB-19; Log10 Concentration -8.0
  Percent Growth: 98%
A498
  Log10GI50: -6.18 Molar
  Log10LC50: -4.63 Molar
  Log10TGI: -5.34 Molar
  TGI: 4.55E-6 Molar
A498; 1.00E-5 Molar
  Growth Percent: 21.71%
A498; Homo sapiens
  GI50: 656 nM
A498; [1]
  CC50: 23600 nM
A498; Log10 Concentration -4.0
  Percent Growth: -100%
A498; Log10 Concentration -5.0
  Percent Growth: -20%
A498; Log10 Concentration -6.0
  Percent Growth: 39%
A498; Log10 Concentration -7.0
  Percent Growth: 99%
A498; Log10 Concentration -8.0
  Percent Growth: 97%
KM12
  Log10GI50: -6.49 Molar
  Log10LC50: -5.23 Molar
  Log10TGI: -5.80 Molar
  TGI: 1.58E-6 Molar
KM12; 1.00E-5 Molar
  Growth Percent: 4.37%
KM12; Homo sapiens
  GI50: 321 nM
KM12; [1]
  CC50: 5890 nM
KM12; Log10 Concentration -4.0
  Percent Growth: -86%
KM12; Log10 Concentration -5.0
  Percent Growth: -70%
KM12; Log10 Concentration -6.0
  Percent Growth: 17%
KM12; Log10 Concentration -7.0
  Percent Growth: 84%
KM12; Log10 Concentration -8.0
  Percent Growth: 99%
BT-549
  Log10GI50: -6.41 Molar
  Log10LC50: -4.72 Molar
  Log10TGI: -5.62 Molar
  TGI: 2.42E-6 Molar
BT-549; 1.00E-5 Molar
  Growth Percent: 18.91%
BT-549; Homo sapiens
  GI50: 387 nM
BT-549; [1]
  CC50: 19200 nM
BT-549; Log10 Concentration -4.0
  Percent Growth: -97%
BT-549; Log10 Concentration -5.0
  Percent Growth: -32%
BT-549; Log10 Concentration -6.0
  Percent Growth: 20%
BT-549; Log10 Concentration -7.0
  Percent Growth: 93%
BT-549; Log10 Concentration -8.0
  Percent Growth: 91%
MDA-MB-468
  Log10GI50: -6.47 Molar
  Log10LC50: -4.40 Molar
  Log10TGI: -5.78 Molar
  TGI: 1.65E-6 Molar
MDA-MB-468; 1.00E-5 Molar
  Growth Percent: 16.65%
MDA-MB-468; Homo sapiens
  GI50: 336 nM
MDA-MB-468; [1]
  CC50: 40100 nM
MDA-MB-468; Log10 Concentration -4.0
  Percent Growth: -68%
MDA-MB-468; Log10 Concentration -5.0
  Percent Growth: -22%
MDA-MB-468; Log10 Concentration -6.0
  Percent Growth: 6%
MDA-MB-468; Log10 Concentration -7.0
  Percent Growth: 99%
MDA-MB-468; Log10 Concentration -8.0
  Percent Growth: 99%
NCI/ADR-RES
  Log10GI50: -6.56 Molar
  Log10LC50: > -4.00 Molar
  Log10TGI: -4.70 Molar
  TGI: 2.00E-5 Molar
NCI/ADR-RES; 1.00E-5 Molar
  Growth Percent: 10.36%
NCI/ADR-RES; Homo sapiens
  GI50: 273 nM
NCI/ADR-RES; [1]
  CC50: > 100000 nM
NCI/ADR-RES; Log10 Concentration -4.0
  Percent Growth: -8%
NCI/ADR-RES; Log10 Concentration -5.0
  Percent Growth: 3%
NCI/ADR-RES; Log10 Concentration -6.0
  Percent Growth: 14%
NCI/ADR-RES; Log10 Concentration -7.0
  Percent Growth: 78%
NCI/ADR-RES; Log10 Concentration -8.0
  Percent Growth: 97%
NCI-60 cancer cell lines; 1.00E-5 Molar
  Mean Growth Percent: 13.21%
NCI-60 cancer cell lines
  Log10GI50 _MID: -6.21 Molar
  Log10LC50 _MID: -4.58 Molar
  Log10TGI _MID: -5.29 Molar
